Measurements taken from PubChem BioAssay AID1259407 (Chemical Carcinogenesis Research Information System (CCRIS), 2018).
Activity calls are given as the source filed them. How the calls were made is not given here.

Test system: CCRIS mutagenicity, Ames/micronucleus/aberration tests
Experiment: CCRIS mutagenicity studies
[1] = Test System: AMES SALMONELLA TYPHIMURIUM, Strain/Indicator: TA98, Metabolic Activation: NONE, Method: STANDARD PLATE
[2] = Test System: AMES SALMONELLA TYPHIMURIUM, Strain/Indicator: TA100, Metabolic Activation: NONE, Method: STANDARD PLATE
[3] = Test System: AMES SALMONELLA TYPHIMURIUM, Strain/Indicator: TA1535, Metabolic Activation: NONE, Method: STANDARD PLATE
[4] = Test System: AMES SALMONELLA TYPHIMURIUM, Strain/Indicator: TA1537, Metabolic Activation: NONE, Method: STANDARD PLATE
[5] = Test System: AMES SALMONELLA TYPHIMURIUM, Strain/Indicator: TA1538, Metabolic Activation: NONE, Method: STANDARD PLATE
[6] = Test System: AMES SALMONELLA TYPHIMURIUM, Strain/Indicator: TA100, Metabolic Activation: RAT, LIVER, S-9, AROCLOR 1254, Method: STANDARD PLATE
[7] = Test System: AMES SALMONELLA TYPHIMURIUM, Strain/Indicator: TA98, Metabolic Activation: NONE, Method: PREINCUBATION

CCO[Si](C)(OCC)OCC
mutagenic call [1]: inactive; negative | mutagenic call (Test System: AMES SALMONELLA TYPHIMURIUM, Strain/Indicator: TA98, Metabolic Activation: RAT LIVER S-9, AROCLOR 1254, Method: STANDARD PLATE): inactive; negative | mutagenic call [2]: inactive; negative | mutagenic call (Test System: AMES SALMONELLA TYPHIMURIUM, Strain/Indicator: TA100, Metabolic Activation: RAT LIVER S-9, AROCLOR 1254, Method: STANDARD PLATE): inactive; negative | mutagenic call [3]: inactive; negative | mutagenic call (Test System: AMES SALMONELLA TYPHIMURIUM, Strain/Indicator: TA1535, Metabolic Activation: RAT LIVER S-9, AROCLOR 1254, Method: STANDARD PLATE): inactive; negative | mutagenic call [4]: inactive; negative | mutagenic call (Test System: AMES SALMONELLA TYPHIMURIUM, Strain/Indicator: TA1537, Metabolic Activation: RAT LIVER S-9, AROCLOR 1254, Method: STANDARD PLATE): inactive; negative | mutagenic call [5]: inactive; negative | mutagenic call (Test System: AMES SALMONELLA TYPHIMURIUM, Strain/Indicator: TA1538, Metabolic Activation: RAT LIVER S-9, AROCLOR 1254, Method: STANDARD PLATE): inactive; negative | mutagenic call (Test System: E. COLI, Strain/Indicator: P3078 POLA, Metabolic Activation: NONE, Method: SPOT TEST): inactive; negative | mutagenic call (Test System: E. COLI, Strain/Indicator: P3078 POLA, Metabolic Activation: RAT LIVER S-9, AROCLOR 1254, Method: SPOT TEST): inactive; negative | mutagenic call (Test System: E. COLI, Strain/Indicator: W3110, Metabolic Activation: NONE, Method: SPOT TEST): inactive; negative | mutagenic call (Test System: E. COLI, Strain/Indicator: W3110, Metabolic Activation: RAT LIVER S-9, AROCLOR 1254, Method: SPOT TEST): inactive; negative | mutagenic call (Test System: MOUSE LYMPHOMA, Strain/Indicator: L5178Y (TK+/TK-), Metabolic Activation: NONE, Method: SUSPENSION/PLATE): inactive; negative | mutagenic call (Test System: MOUSE LYMPHOMA, Strain/Indicator: L5178Y (TK+/TK-), Metabolic Activation: RAT, LIVER, S-9, Method: SUSPENSION/PLATE): inactive; negative

O[C@H]1C=CC2=C(c3cccc4cccc2c34)[C@@H]1O
mutagenic call (Test System: AMES SALMONELLA TYPHIMURIUM, Strain/Indicator: TM677, Metabolic Activation: NONE, Method: PREINCUBATION): active; positive | mutagenic call (Test System: AMES SALMONELLA TYPHIMURIUM, Strain/Indicator: TM677, Metabolic Activation: RAT, LIVER, POSTMITOCHONDRIAL SUPERNATANT, AROCLOR 1254, Method: PREINCUBATION): active; positive

COc1cc(-c2ccc(-[n+]3nc(-c4ccccc4)nn3-c3ccc([N+](=O)[O-])cc3)c(OC)c2)ccc1-[n+]1nc(-c2ccccc2)nn1-c1ccc([N+](=O)[O-])cc1
mutagenic call [2]: active; positive | mutagenic call (Test System: AMES SALMONELLA TYPHIMURIUM, Strain/Indicator: TA100, Metabolic Activation: S-9 MIX, Method: STANDARD PLATE): active; positive

O=c1[nH]cnc2c1ncn2[C@H]1CC[C@@H](CO)O1
mutagenic call (Test System: AMES SALMONELLA TYPHIMURIUM, Strain/Indicator: TA98, Metabolic Activation: HAMSTER, LIVER, S-9, AROCLOR 1254, Method: STANDARD PLATE): inactive; negative | mutagenic call [1]: inactive; negative | mutagenic call (Test System: AMES SALMONELLA TYPHIMURIUM, Strain/Indicator: TA98, Metabolic Activation: RAT, LIVER, S-9, AROCLOR 1254, Method: STANDARD PLATE): inactive; negative | mutagenic call (Test System: AMES SALMONELLA TYPHIMURIUM, Strain/Indicator: TA100, Metabolic Activation: HAMSTER, LIVER, S-9, AROCLOR 1254, Method: STANDARD PLATE): inactive; negative | mutagenic call [2]: inactive; negative | mutagenic call [6]: inactive; negative | mutagenic call (Test System: AMES SALMONELLA TYPHIMURIUM, Strain/Indicator: TA1535, Metabolic Activation: HAMSTER, LIVER, S-9, AROCLOR 1254, Method: STANDARD PLATE): inactive; negative | mutagenic call [3]: inactive; negative | mutagenic call (Test System: AMES SALMONELLA TYPHIMURIUM, Strain/Indicator: TA1535, Metabolic Activation: RAT, LIVER, S-9, AROCLOR 1254, Method: STANDARD PLATE): inactive; negative | mutagenic call (Test System: AMES SALMONELLA TYPHIMURIUM, Strain/Indicator: TA1537, Metabolic Activation: HAMSTER, LIVER, S-9, AROCLOR 1254, Method: STANDARD PLATE): inactive; negative | mutagenic call [4]: inactive; negative | mutagenic call (Test System: AMES SALMONELLA TYPHIMURIUM, Strain/Indicator: TA1537, Metabolic Activation: RAT, LIVER, S-9, AROCLOR 1254, Method: STANDARD PLATE): inactive; negative | mutagenic call (Test System: AMES SALMONELLA TYPHIMURIUM, Strain/Indicator: TA1538, Metabolic Activation: HAMSTER, LIVER, S-9, AROCLOR 1254, Method: STANDARD PLATE): inactive; negative | mutagenic call [5]: inactive; negative | mutagenic call (Test System: AMES SALMONELLA TYPHIMURIUM, Strain/Indicator: TA1538, Metabolic Activation: RAT, LIVER, S-9, AROCLOR 1254, Method: STANDARD PLATE): inactive; negative | mutagenic call (Test System: HUMAN B LYMPHOBLASTOID CELLS, Strain/Indicator: TK6 CELL (HPRT)/6-THIOGUANINE, Metabolic Activation: NONE, Method: SUSPENSION/PLATE): active; positive | mutagenic call (Test System: HUMAN B LYMPHOBLASTOID CELLS, Strain/Indicator: TK6 CELL (TK+/-)/TRIFLUOROTHYMIDINE, Metabolic Activation: NONE, Method: SUSPENSION/PLATE): active; positive

Cc1ccc2c(=O)c3cccc4ccc1c2c43
mutagenic call [6]: active; positive

Cc1cc2nc3ccc(C)c(N)c3nc2cc1N
mutagenic call [7]: inactive; negative | mutagenic call (Test System: AMES SALMONELLA TYPHIMURIUM, Strain/Indicator: TA98, Metabolic Activation: RAT, LIVER, S-9, PCB, Method: PREINCUBATION): active; positive

COP(=S)(NC(C)C)Oc1ccccc1C(=O)OC(C)C (stereo not given)
mutagenic call [1]: inactive; negative | mutagenic call (Test System: AMES SALMONELLA TYPHIMURIUM, Strain/Indicator: TA98, Metabolic Activation: RAT, LIVER, S-9, PCB, Method: STANDARD PLATE): inactive; negative | mutagenic call [2]: inactive; negative | mutagenic call (Test System: AMES SALMONELLA TYPHIMURIUM, Strain/Indicator: TA100, Metabolic Activation: RAT, LIVER, S-9, PCB, Method: STANDARD PLATE): inactive; negative

OC1C=C2c3ccc4ccccc4c3-c3cccc(c32)C1O (stereo not given)
mutagenic call (Test System: AMES SALMONELLA TYPHIMURIUM, Strain/Indicator: TA97A, Metabolic Activation: NONE, Method: PREINCUBATION): inactive; negative | mutagenic call (Test System: AMES SALMONELLA TYPHIMURIUM, Strain/Indicator: TA97A, Metabolic Activation: RAT, LIVER, S-9, AROCLOR 1254, Method: PREINCUBATION): active; positive | mutagenic call [7]: inactive; negative | mutagenic call (Test System: AMES SALMONELLA TYPHIMURIUM, Strain/Indicator: TA98, Metabolic Activation: RAT, LIVER, S-9, AROCLOR 1254, Method: PREINCUBATION): active; positive | mutagenic call (Test System: AMES SALMONELLA TYPHIMURIUM, Strain/Indicator: TA100, Metabolic Activation: NONE, Method: PREINCUBATION): active; positive | mutagenic call (Test System: AMES SALMONELLA TYPHIMURIUM, Strain/Indicator: TA100, Metabolic Activation: RAT, LIVER, S-9, AROCLOR 1254, Method: PREINCUBATION): active; positive
